Patent publication US4154852A, “Novel aminobenzocycloheptenes” (Roussel Uclaf, priority 1976, dated 1979)

Columns and labels:
[1] = Acute toxicity in mice; conditions: mouse, in vivo, ip, intraperitoneal, determined 48 hours later, read-out: DL50 (dose which kills 50% of mice)
Description: The DL50 dose which kills 50% of mice after intraperitoneal administration of the tested compound was determined 48 hours later and the DL50 for the compounds is reported in Table IV.

[2] = test system: serotonine (5HT) uptake; assay: Inhibition of serotonine uptake in vitro (14C-5HT, impure brain synaptosomes); type: biochemical, female rat; conditions: rat brain synaptosomes, 37° C., 5 minutes, 14 C-5HT 10^-7 M; read-out: Test in vitro I.C. 50 (inhibition of 14C-5HT uptake)
Description: (§1) The inhibition of serotonine (5HT) uptake was measured in impure synaptosomes prepared from the entire brain of a female rat 19 to 21 days old using the technique of Kannengiesser et al. [Biochemical Pharmacology,Vol. 22, (1973) p. 73]. Diverse concentrations of the products were placed in an incubator with the preparation at 37° C. for 5 minutes in the presence of 14 C-5HT at a concentration of 10^-7 M. The 50% inhibiting concentration (IC50), dose which inhibits by 50% the uptake of 14C-5HT in the synaptosomes was determined graphically and the IC50 dose for the compounds is reported in Table V.

[3] = test system: effects of L-dopa; assay: Potentialization of effects of L-dopa in iproniazide-pretreated mice; type: in vivo; conditions: Mus musculus, ip; i.p. one hour before L-dopa 100 mg/kg i.p.; iproniazide 75 mg/kg i.p. 18 hours before; male mice; read-out: ED50 (dose which potentializes by 50% the L-dopa effects)
Description: The administration of L-dopa to mice pretreated 18 hours previously with iproniazide produced certain number of symptoms; muscular hypertonicity, hyperactivity, agitation, crying, aggressiveness, salivation and exophthalmy. The intensity of these effects is potentialized by administration of an antidepressant one hour before the administration of L-dopa. Male mice received intraperitoneally 75 mg/kg of iproniazide 18 hours before the start of the test and the tested product was intraperitoneally administered in aqueous solution in increasing doses. One hour later, L-dopa was intraperitoneally administered at a dose of 100 mg/kg and the different symptoms were observed 15 and 30 minutes later. They were evaluated on a scale of 0 to 3 for each animal and the totals for each dose were determined.

[4] = test system: effects of nialamide (monoamine oxidase inhibitor); assay: Potentialization of effects of monoamine oxidase inhibitor (nialamide) in mice, actimetric measurement; type: in vivo; conditions: nialamide 100 mg/kg i.p. 30 minutes before, 6 hours
Description: The administration of a monoamine oxidase inhibitor to mice induces a hyperactive movement of the animals which is able to be potentialized by an antidepressant. Using the procedure of Carlsson et al [Brain Research, Vol. 12 (1969), p. 456], a dose of 100 mg/kg of nialamide was intraperitoneally administered to mice 30 minutes before the intraperitoneal administration of the tested product and the values of actimetric measurements were recorded every 30 minutes for 6 hours. Potentialization of the effects of nialamide for the tested product was expressed in increasing number of + signs for a determined dose in mg/kg.

[5] = test system: uptake of 14C-5HT; assay: Inhibition of serotonine uptake in vivo (synaptosomes prepared after administration to rats); design: key: the activity was expressed in increasing number of + signs; ++: the activity was expressed in increasing number of + signs; +++: the activity was expressed in increasing number of + signs; conditions: 5 to 20 mg/kg i.p., female rats 19 to 21 days old, brain removed after 30 minutes
Description: as §1
The tested products were intraperitoneally administered to groups of female rats 19 to 21 days old at doses of 5 to 20 mg/kg. After 30 minutes, the brain was removed and synaptosomes were prepared and placed in an incubator in the presence of 14 C-5HT as indicated in the previous test.

[6] = test system: 5-hydroxytryptophane (5 HTP) effects; assay: Potentialization of 5 HTP effects (trembling) in mice; type: in vivo; conditions: Mus musculus, i.p. one hour before 200 mg/kg 5-HTP i.p., observed every 15 minutes for one hour, read-out: MAD (minimum active dose), potentialization of 5 HTP effects
Description: The administration of 5-hydroxytryptophane (5 HTP) to mice pretreated with an antidepressant induces in the mice a particular behaviour namely the appearance of trembling.
The test product was intraperitoneally administered in increasing doses one hour before the intraperitoneal administration of 200 mg/kg of 5-HTP and the symptoms were observed were noted every 15 minutes for one hour to determine the minimum active dose (MAD) of the test product.

Row | Structure (SMILES) | LD50 at 48 h [1] | IC50 [2] | ED50 [3] | Potentialization of Nialamide ([4]; tested product 1 mg/kg i.p.) | Potentialization of Nialamide ([4]; tested product 5 mg/kg i.p.) | In vivo Test (relative power to inhibit the uptake of 14C-5HT) [5] | Potentialization of Nialamide ([4]; tested product 20 mg/kg i.p.) | minimal effective dose [6]
1 | CNC1C=Cc2cc(O)ccc2CC1.Cl (stereo not shown) [Example 4, 7-methylamino-6,7-dihydro [5H] benzocycloheptene-2-ol hydrochloride] | 50 mg/kg | 380 nM |  |  |  |  |  | 
2 | CNC1C=Cc2cc(OC)ccc2CC1.Cl (stereo not shown) [Example 3, 2-methoxy-7-methylamino-6,7-dihydro [5H] benzocycloheptene hydrochloride] | 50 mg/kg | 270 nM | 5 mg/kg | + | ++ | ++ |  | 
3 | CNC1C=Cc2cc([N+](=O)[O-])ccc2CC1.Cl (stereo not shown) [Example 1, 2-nitro-7-methylamino-6,7-dihydro [5H] benzocycloheptene hydrochloride] | 75 mg/kg | 320 nM | 1 mg/kg |  | + | +++ | ++ | 10 mg/kg
4 | CNC1C=Cc2cc(N)ccc2CC1.O=C(O)/C=C/C(=O)O (stereo not shown) [Example 2, 2-amino-7-methylamino-6,7-dihydro [5H] benzocycloheptene fumarate] | 75 mg/kg | 4000 nM | 10 mg/kg |  | + | + | ++ | 5 mg/kg
